Values after ≈ are worked out from the molar mass of the structure shown. Active and inactive are the calls of the source. No cut-off for these calls is given here.
What was measured:
[1] = Toxicity in Balb/c mouse xenografted with human MCF7 cells assessed as pathological changes in spleen at 5 to 20 mg/kg, ip administered for every 2 days for 21 days by hematoxylin and eosin staining based analysis; type: organism-based; conditions: in vivo, 504 h, dose 5-20 mg/kg, time 21 day
[2] = tested on: A549; assay: Antimigratory activity against human A549 cells assessed as inhibition of cell migration measured after 24 hrs by crystal violet staining based transwell migration assay; type: functional; conditions: dose 1.25-5 nM
[3] = Toxicity in Balb/c mouse xenografted with human MCF7 cells assessed as pathological changes in kidney at 5 to 20 mg/kg, ip administered for every 2 days for 21 days by hematoxylin and eosin staining based analysis; type: organism-based; conditions: in vivo, 504 h, dose 5-20 mg/kg, time 21 day
[4] = molecular target: ATP-dependent translocase ABCB1 (Homo sapiens, UniProt P08183); assay: Substrate activity at P-glycoprotein in paclitaxel-resistant human MCF/TxR cells assessed as intracellular Rhodamine-123 content at 10 uM incubated for 12 hrs by confocal microscopy; type: cell-based; conditions: mcf7/txr
[5] = Toxicity in Balb/c mouse xenografted with human MCF7 cells assessed as body weight loss at 5 to 20 mg/kg, ip administered for every 2 days for 21 days; type: organism-based; conditions: in vivo, 48 h, dose 5-20 mg/kg, time 2 day
[6] = Aqueous solubility in pH 7.4 PBS buffer by HPLC-UV analysis; type: physicochemical
[7] = Toxicity in Balb/c mouse xenografted with human MCF7 cells assessed as pathological changes in liver at 5 to 20 mg/kg, ip administered for every 2 days for 21 days by hematoxylin and eosin staining based analysis; type: organism-based; conditions: in vivo, 504 h, dose 5-20 mg/kg, time 21 day
[8] = tested on: MCF7; assay: Induction of cell cycle arrest in human MCF7 cells assessed as upregulation of Bcl2 phosphorylation at […] at 5 to 20 nM measured after 24 hrs by Western blot analysis; type: functional, cell-based; conditions: dose 5-20 nM
[9] = tested on: A549/TxR; assay: Inhibition of colony formation of paclitaxel-resistant human A549/TxR cells at 20 nM measured after 24 hrs by crystal violet based assay; type: functional, cell-based
[10] = tested on: MCF7; assay: Induction of apoptosis in human MCF7 cells assessed as upregulation of BaX protein expression at 5 to 20 nM measured after 24 hrs by Western blot analysis; type: functional, cell-based; conditions: dose 5-20 nM
[11] = tested on: MCF7; assay: cells; conditions: Homo sapiens, MCF7, 72 h
Description: Antiproliferative activity against human MCF7 cells measured after 72 hrs by MTT assay

[12] = Metabolic stability in human liver microsomes assessed as intrinsic clearance at 1 uM by LC/MS analysis; type: ADME, Microsome; conditions: read-out: CLH
[13] = tested on: MCF7; assay: Induction of ROS generation in human MCF7 cells assessed as increase in intracellular ROS level measured after 12 hrs by DCFH-DA staining based assay; type: functional, cell-based; conditions: dose 5-20 nM
[14] = molecular target: T1, Tubulin (Homo sapiens) (UniProt P68371+Q9H4B7+P0DPH7+P68366+Q13509+Q71U36+P04350+Q3ZCM7+P07437+P68363+Q9BQE3+Q6PEY2+Q13885+Q9BVA1+Q9BUF5); assay: Inhibition of [3H]colchicine binding to tubulin (unknown origin) at 5 uM by competition scintillation proximity assay relative to control; type: protein-complex assay
[15] = tested on: MCF7; assay: Antitumor activity against human MCF7 cells xenografted in Balb/c mouse assessed as tumor growth inhibition at 20 mg/kg, ip administered for every 2 days for 21 days; type: functional; conditions: MCF7, 504 h, time 21 day, read-out: TGI
[16] = tested on: MCF7; assay: Induction of apoptosis in human MCF7 cells assessed as upregulation of p-Bim EL protein expression at 5 to 20 nM measured after 24 hrs by Western blot analysis; type: functional, cell-based; conditions: dose 5-20 nM
[17] = Antiproliferative activity against paclitaxel-resistant human MCF7/TxR cells measured after 72 hrs by MTT assay; type: functional, cell-based
[18] = tested on: MCF7; assay: Induction of cell cycle arrest in human MCF7 cells assessed as accumulation of cells at G2/M phase at 10 nM measured after 24 hrs by flow cytometry relative to control; type: functional
[19] = tested on: MCF7; assay: Antitumor activity against human MCF7 cells xenografted in Balb/c mouse assessed as tumor growth inhibition at 10 mg/kg, ip administered for every 2 days for 21 days; type: functional; conditions: MCF7, 504 h, time 21 day, read-out: TGI
[20] = Toxicity in Balb/c mouse xenografted with human MCF7 cells assessed as pathological changes in heart at 5 to 20 mg/kg, ip administered for every 2 days for 21 days by hematoxylin and eosin staining based analysis; type: organism-based; conditions: in vivo, 504 h, dose 5-20 mg/kg, time 21 day
[21] = tested on: MCF7; assay: Induction of cell cycle arrest in human MCF7 cells assessed as arrest in G2/M phase by measuring accumulation of CDK7 at 5 to 25 nM incubated for 24 hrs by Western blotting analysis; type: functional, cell-based; conditions: dose 5-25 nM
[22] = tested on: HCT-116; assay: Antiproliferative activity against human HCT-116 cells measured after 72 hrs by MTT assay; type: functional, cell-based; conditions: HCT-116, 72 h
[23] = tested on: HUVEC; assay: Inhibition of angiogenesis in HUVEC cells assessed as broken tubular network at 5 nM after 6 hrs by phase contrast microscopy; type: functional, cell-based; conditions: Homo sapiens
[24] = molecular target: T1, Tubulin (Homo sapiens); assay: Inhibition of [3H]colchicine binding to tubulin (unknown origin) at 1 uM by competition scintillation proximity assay relative to control; type: protein-complex assay
[25] = tested on: MCF7; assay: Induction of cell cycle arrest in human MCF7 cells assessed as cdc25c activation at 5 to 25 nM incubated for 24 hrs by Western blotting analysis; type: functional, cell-based; conditions: dose 5-25 nM
[26] = tested on: MCF7; assay: Induction of cell cycle arrest in human MCF7 cells assessed as mitosis by measuring accumulation of histone H3 ser10 phosphorylation incubated for 24 hrs by immunofluorescence assay; type: functional, cell-based; conditions: dose 5-25 nM
[27] = tested on: MCF7; assay: Induction of cell cycle arrest in human MCF7 cells assessed as mitosis by measuring accumulation of histone H3 ser10 phosphorylation incubated for 24 hrs by Western blotting analysis; type: functional, cell-based; conditions: dose 5-25 nM
[28] = tested on: MCF7; assay: Induction of mitochondria transmembrane potential loss in human MCF7 cells measured after 12 hrs by JC1 dye based assay; type: functional; conditions: dose 5-20 nM
[29] = Antiproliferative activity against paclitaxel-resistant human A549/TxR cells measured after 72 hrs by MTT assay; type: functional, cell-based
[30] = tested on: HUVEC; assay: Inhibition of angiogenesis in HUVEC cells assessed as reduction in capillary tube formation after 6 hrs by phase contrast microscopy; type: functional, cell-based; conditions: Homo sapiens, dose 1.25-5 nM
[31] = tested on: HT-29; assay: Antiproliferative activity against human HT-29 cells measured after 72 hrs by MTT assay; type: functional, cell-based; conditions: HT-29, 72 h
[32] = molecular target: T2, Tubulin (Sus scrofa, UniProt P02554+P02550); assay: Binding affinity to porcine brain tubulin assessed as changes in the fluorescence incubated for 10 mins tryptophan-based binding assay
[33] = Toxicity in Balb/c mouse xenografted with human MCF7 cells assessed as pathological changes in lung at 5 to 20 mg/kg, ip administered for every 2 days for 21 days by hematoxylin and eosin staining based analysis; type: organism-based; conditions: in vivo, 504 h, dose 5-20 mg/kg, time 21 day
[34] = tested on: MCF7; assay: Induction of apoptosis in human MCF7 cells assessed as upregulation of p-Bim L protein expression at 5 to 20 nM measured after 24 hrs by Western blot analysis; type: functional, cell-based; conditions: dose 5-20 nM
[35] = molecular target: T2, Tubulin; assay: Inhibition of porcine brain tubulin assessed as changes in the fluorescence intensity measured for 60 mins by cell free tubulin polymerization assay
[36] = tested on: MCF7; assay: Induction of cell cycle arrest in human MCF7 cells assessed as arrest in G2/M phase by measuring accumulation of p21 at 5 to 25 nM incubated for 24 hrs by Western blotting analysis; type: functional, cell-based; conditions: dose 5-25 nM
[37] = tested on: K562; assay: cells; conditions: Homo sapiens, K562, 72 h
Description: Antiproliferative activity against human K562 cells measured after 72 hrs by MTT assay

ATP-dependent translocase ABCB1, sequence (P08183 whole entry): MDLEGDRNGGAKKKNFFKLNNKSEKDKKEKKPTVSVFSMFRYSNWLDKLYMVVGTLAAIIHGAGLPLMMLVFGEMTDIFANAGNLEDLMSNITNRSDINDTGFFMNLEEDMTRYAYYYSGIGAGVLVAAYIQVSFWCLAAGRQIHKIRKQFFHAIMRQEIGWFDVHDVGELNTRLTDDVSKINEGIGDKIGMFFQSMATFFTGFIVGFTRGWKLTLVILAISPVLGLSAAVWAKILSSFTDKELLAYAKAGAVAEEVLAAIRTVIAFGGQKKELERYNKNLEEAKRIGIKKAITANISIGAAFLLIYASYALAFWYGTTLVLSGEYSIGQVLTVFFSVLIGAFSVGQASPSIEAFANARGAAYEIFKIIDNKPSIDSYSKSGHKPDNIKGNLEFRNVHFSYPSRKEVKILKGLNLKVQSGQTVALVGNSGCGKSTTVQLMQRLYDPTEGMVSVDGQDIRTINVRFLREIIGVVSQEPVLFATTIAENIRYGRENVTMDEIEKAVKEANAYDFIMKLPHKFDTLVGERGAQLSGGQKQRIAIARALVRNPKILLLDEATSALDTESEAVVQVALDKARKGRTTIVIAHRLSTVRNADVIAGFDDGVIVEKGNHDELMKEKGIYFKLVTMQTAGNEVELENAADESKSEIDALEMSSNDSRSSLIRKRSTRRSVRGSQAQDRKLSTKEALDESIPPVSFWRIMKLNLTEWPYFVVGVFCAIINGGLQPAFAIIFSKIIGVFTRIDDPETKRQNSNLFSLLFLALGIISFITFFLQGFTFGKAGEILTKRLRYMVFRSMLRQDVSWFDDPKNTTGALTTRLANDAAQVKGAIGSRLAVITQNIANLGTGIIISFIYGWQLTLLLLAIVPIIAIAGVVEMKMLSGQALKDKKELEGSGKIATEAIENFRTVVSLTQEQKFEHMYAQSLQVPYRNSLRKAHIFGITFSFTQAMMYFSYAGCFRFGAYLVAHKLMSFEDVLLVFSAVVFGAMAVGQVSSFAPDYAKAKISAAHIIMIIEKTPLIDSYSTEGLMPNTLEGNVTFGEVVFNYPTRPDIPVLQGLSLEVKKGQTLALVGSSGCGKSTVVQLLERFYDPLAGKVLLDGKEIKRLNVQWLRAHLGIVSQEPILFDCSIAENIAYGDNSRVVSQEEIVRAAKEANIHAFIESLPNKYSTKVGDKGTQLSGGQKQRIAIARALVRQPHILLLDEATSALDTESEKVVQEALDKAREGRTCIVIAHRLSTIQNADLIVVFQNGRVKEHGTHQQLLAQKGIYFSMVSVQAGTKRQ

For COc1c(Br)cc([C@@H]2c3cc4c(cc3C[C@H]3C(=O)NC(=O)N23)OCCO4)cc1Br, the Activity [1] was “Non-Toxic”, the Activity [2] was “Dose-Dependent Effect” and the Activity [3] was “Non-Toxic”. The Activity [4] was “Not Active”, the Activity [5] was “Non-Toxic” and the solubility [6] was under 0.5 µg/mL. The Activity [7] was “Non-Toxic”, the Activity [8] was “Active” and the inhibition [9] was “Active”. The Activity [10] was “Active”, the IC50 [11] was 3.5 nM and the CLint scaled at 1 µM [12] was 167 mL/min/kg. For the same compound, the Activity [13] was “Dose-Dependent Effect”, the inhibition [14] was 84.6% and the inhibition in vivo at 20 mg/kg [15] was 78.9%. The Activity [16] was “Active”, the IC50 [17] was 5.2 nM and the Activity [18] was 16%. The inhibition in vivo at 10 mg/kg [19] was 73.2%, the Activity [20] was “Non-Toxic” and the Activity [21] was “Active”. For the same compound, the IC50 [22] was 5.9 nM, the Activity [23] was “Dose-Dependent Effect” and the inhibition [24] was 69.7%. The Activity [25] was “Active”, the Activity [26] was “Dose-Dependent Effect” and the Activity [27] was “Dose-Dependent Effect”. For the same compound, the Activity [28] was “Dose-Dependent Effect”, the IC50 [29] was 7.9 nM and the Activity [30] was “Dose-Dependent Effect”. For the same compound, the IC50 [31] was 4.4 nM, the Kd [32] was 1700 nM and the Activity [33] was “Non-Toxic”. The Activity [34] was “Active”, the IC50 [35] was 2310 nM and the Activity [36] was “Active”. For the same compound, the IC50 [37] was 5.3 nM.
In the case of COc1c(Cl)cc([C@@H]2c3cc4c(cc3C[C@H]3C(=O)NC(=O)N23)OCCO4)cc1Cl, the Activity [1] is reported as “Non-Toxic”, the Activity [2] is reported as “Dose-Dependent Effect” and the Activity [3] is reported as “Non-Toxic”. The Activity [4] was “Not Active”, the Activity [5] was “Non-Toxic” and the solubility [6] was 2.85 µg/mL (≈ 6.55 µM). For the same compound, the Activity [7] was “Non-Toxic”, the Activity [8] was “Active” and the inhibition [9] was “Active”. The Activity [10] was “Active”, the IC50 [11] was 9.2 nM and the CLint scaled at 1 µM [12] was 66.7 mL/min/kg. For the same compound, the Activity [13] was “Dose-Dependent Effect”, the inhibition [14] was 88.7% and the inhibition in vivo at 20 mg/kg [15] was 85.1%. The Activity [16] was “Active”, the IC50 [17] was 7.8 nM and the Activity [18] was 16%. For the same compound, the inhibition in vivo at 10 mg/kg [19] was 85.1%, the Activity [20] was “Non-Toxic” and the Activity [21] was “Active”. For the same compound, the IC50 [22] was 8.7 nM, the Activity [23] was “Dose-Dependent Effect” and the inhibition [24] was 71.5%. The Activity [25] was “Active”, the Activity [26] was “Dose-Dependent Effect” and the Activity [27] was “Dose-Dependent Effect”. For the same compound, the Activity [28] was “Dose-Dependent Effect”, the IC50 [29] was 5.2 nM and the Activity [30] was “Dose-Dependent Effect”. The IC50 [31] was 8.3 nM, the Kd [32] was 4490 nM and the Activity [33] was “Non-Toxic”. The Activity [34] was “Active”, the IC50 [35] was 2520 nM and the Activity [36] was “Active”. For the same compound, the IC50 [37] was 6.3 nM.
